Data taken from patent publication US20130045985A1, “N-(5-FLUORO-2-((4-METHYLBENZYL)OXY)PYRIMIDIN-4-YL)BENZAMIDE DERIVATIVES” (Dow AgroSciences LLC, priority 2011, published 2013).

Assays:
[1] = system: Mycosphaerella graminicola; Anamorph: Septoria tritici; Bayer Code SEPTTR; assay: Fungicidal activity: leaf blotch of wheat (SEPTTR), one-day protectant and three-day curative; assay type: in vivo, Septoria tritici on wheat plants (variety Yuma); conditions: wheat plants, rating of % disease control
Procedure: Evaluation of Fungicidal Activity: Leaf Blotch of Wheat (Mycosphaerella graminicola; Anamorph: Septoria tritici; Bayer Code SEPTTR)
Wheat plants (variety Yuma) were grown from seed in a greenhouse in 50% mineral soil/50% soil-less Metro mix until the first leaf was fully emerged, with 7-10 seedlings per pot. These plants were inoculated with an aqueous spore suspension of Septoria tritici either prior to or after fungicide treatments. After inoculation the plants were kept in 100% relative humidity (one day in a dark dew chamber followed by two to three days in a lighted dew chamber) to permit spores to germinate and infect the leaf. The plants were then transferred to a greenhouse for disease to develop.
The following table presents the activity of typical compounds of the present disclosure when evaluated in these experiments. The effectiveness of the test compounds in controlling disease was determined by assessing the severity of disease on treated plants, then converting the severity to percent control based on the level of disease on untreated, inoculated plants.
In each case of Table I the rating scale is as follows: […]

Cc1ccc(COc2ncc(F)c(NC(=O)c3ccccc3)n2)cc1 [Cmpd 1, N-(5-fluoro-2-(4-methylbenzyloxy)pyrimidin-4-yl)benzamide]
melting point: 93 to 95 °C
SEPTTR 100 PPM 1DP ([1]; One-Day Protectant (1DP)): B (51-75)
SEPTTR 100 PPM 3DC ([1]; Three-Day Curative (3DC)): A (76-100)
